Like-named read-outs stand apart in the source and are kept apart here.
Target: T1, TLR9 (Homo sapiens, UniProt Q9NR96)
T1 construct: expressed in transfected cells; host or cells: HEK293
T1 sequence (Q9NR96 26-1032): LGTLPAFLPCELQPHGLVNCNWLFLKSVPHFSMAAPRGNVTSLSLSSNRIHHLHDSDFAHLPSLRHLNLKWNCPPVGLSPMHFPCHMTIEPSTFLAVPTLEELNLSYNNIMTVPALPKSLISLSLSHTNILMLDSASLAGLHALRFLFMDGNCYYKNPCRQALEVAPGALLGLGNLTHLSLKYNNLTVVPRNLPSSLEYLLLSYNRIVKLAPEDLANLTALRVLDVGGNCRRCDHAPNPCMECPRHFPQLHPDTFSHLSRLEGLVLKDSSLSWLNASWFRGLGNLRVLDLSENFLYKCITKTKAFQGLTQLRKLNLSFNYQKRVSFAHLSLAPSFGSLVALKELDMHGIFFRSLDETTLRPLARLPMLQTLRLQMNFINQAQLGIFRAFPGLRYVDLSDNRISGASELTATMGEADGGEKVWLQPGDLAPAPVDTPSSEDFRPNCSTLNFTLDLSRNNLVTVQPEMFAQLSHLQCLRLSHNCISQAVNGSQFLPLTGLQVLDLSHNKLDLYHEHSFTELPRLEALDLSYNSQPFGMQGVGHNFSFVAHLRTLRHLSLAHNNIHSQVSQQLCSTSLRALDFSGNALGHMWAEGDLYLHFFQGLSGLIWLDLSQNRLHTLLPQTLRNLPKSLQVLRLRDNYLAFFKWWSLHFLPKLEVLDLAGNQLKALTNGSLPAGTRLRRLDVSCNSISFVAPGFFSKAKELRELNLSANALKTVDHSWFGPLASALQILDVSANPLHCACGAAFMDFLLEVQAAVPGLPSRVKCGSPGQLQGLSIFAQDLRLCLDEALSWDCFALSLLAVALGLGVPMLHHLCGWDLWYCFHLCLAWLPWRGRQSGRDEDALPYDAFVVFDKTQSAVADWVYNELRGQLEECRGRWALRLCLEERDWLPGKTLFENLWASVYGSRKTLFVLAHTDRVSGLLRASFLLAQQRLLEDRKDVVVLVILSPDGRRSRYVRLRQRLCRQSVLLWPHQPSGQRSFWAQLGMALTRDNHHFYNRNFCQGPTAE
Assay: TLR9 screening of (+)-morphinan library, SEAP reporter in HEK293 cells expressing TLR9
Type: cell-based
Conditions: activator ODN2006; for OD 650 nm (mean ± sd): control (no activator) 0.14, activator 1.42 OD
Procedure: The secreted alkaline phosphatase reporter is under the control of a promoter inducible by the transcription factor NF-κB. A library of more than 100 (+)-morphinan compounds was screened for TLR9 antagonist activity by assessing NF-κB activation in the HEK293 cells expressing TLR9. This reporter gene allows the monitoring of signaling through the TLR, based on the activation of NF-κB.
In a 96-well plate (200 μL total volume) containing 50,000 cells/well, 20 μL of each sample compound was added to wells, in triplicate, followed by a 30 minute incubation at 37° C. and 5% CO2. After the 30 minutes of incubation, 20 μL of the activator ODN2006 was added to each well. The media added to the wells was designed for the detection of NF-κB induced SEAP expression. After a 16-20 hr incubation period, the OD at 650 nm was read on a Beckman Coulter AD 340C Absorbance Detector. All compounds were tested at concentrations of 10 μM and 100 nM.

[1] = HEK293, read-out: % Inhibition (mean), 100 nM
[2] = HEK293, read-out: % Inhibition (mean), 10 μM

Row | Compound | OD 650 nm (mean ± sd) (100 nM) [OD] | OD 650 nm (mean ± sd) (10 μM) [OD] | inhibition at 0.1 µM [1] [%] | inhibition at 10 µM [2] [%] | % Inhibition (mean) (100 nM, 0.1 µM) [%] | inhibition at 0.1 µM (HEK293, 100 nM, read-out: % Inhibition (mean)) [%] | inhibition at 10 µM (HEK293, 10 μM, read-out: % Inhibition (mean)) [%] | % Inhibition (mean) (10 μM) [%]
1 | COc1ccc2c(c1O)[C@]13C=CCC[C@]1(O)[C@H](C2)N(C)CC3 [Compound I-22] | 0.93 ± 0.15 | 0.10 ± 0.01 | 34 | 93 |  |  |  | 
2 | CC(=O)NC1CC[C@]2(O)[C@@H]3Cc4ccc(O)c5c4[C@]2(CCN3CC2CC2)[C@@H]1O5 (stereo partly drawn) [II-75] | 1.08 ± 0.02 | 0.91 ± 0.11 | 24 | 36 |  |  |  | 
3 | [O-][N+]1(CC2CC2)CC[C@@]23c4c5ccc(O)c4O[C@@H]2[C@H](O)CC[C@]3(O)[C@@H]1C5 (stereo partly drawn) [II-90] | 1.39 ± 0.03 | 0.17 ± 0.05 | 2 | 88 |  |  |  | 
4 | COc1ccc2c3c1O[C@@H]1CCC[C@]4(O)[C@H](C2)N(C)CC[C@@]314 [II-44] | 1.18 ± 0.02 | 1.03 ± 0.12 | 17 | 27 |  |  |  | 
5 | C=CCN1CC[C@@]23c4c5ccc(OC)c4O[C@@H]2C(=O)CC[C@]3(O)[C@@H]1C5 [II-47] | 1.18 ± 0.13 | 0.78 ± 0.07 | 17 | 45 |  |  |  | 
6 | COc1ccc2c3c1O[C@@H]1C(OC)(OC)CCC4[C@H](C2)N(CC2CC2)CC[C@]341 (stereo partly drawn) [II-99] | 1.32 ± 0.00 | 0.14 ± 0.01 | 7 | 90 |  |  |  | 
7 | COc1ccc2c3c1O[C@@H]1C(=O)CC[C@@H]4[C@H](C2)N(Cc2ccccc2)CC[C@@]314 [II-29] | 1.36 ± 0.17 | 0.33 ± 0.03 | 4 | 77 |  |  |  | 
8 | COC1=CC=C2[C@@H]3Cc4ccc(OC)c5c4[C@]2(CCN3CC2CCC2)[C@@H]1O5 [II-37] | 1.13 ± 0.07 | 0.18 ± 0.06 | 20 | 87 |  |  |  | 
9 | COc1ccc2c3c1O[C@@H]1C(=O)CC[C@]4(O)[C@H](C2)N(C(=O)C2CCC2)CC[C@@]314 [II-59] | 1.19 ± 0.07 | 1.41 ± 0.13 | 17 | 1 |  |  |  | 
10 | COc1ccc2c(c1OCc1ccccc1)[C@@]13CCN[C@@H](C2)[C@H]1CC(OC)C(=O)C3 (stereo partly drawn) [Compound I-26] | 1.15 ± 0.03 | 0.19 ± 0.02 | 19 | 87 |  |  |  | 
11 | O=C1CC[C@@H]2[C@@H]3Cc4ccc(O)c5c4[C@]2(CCN3)[C@@H]1O5 [II-61] | 1.23 ± 0.02 | 1.22 ± 0.07 | 13 | 14 |  |  |  | 
12 | COC1=CCC2[C@@H]3Cc4ccc(OC)c5c4[C@]2(CCN3CC2CC2)[C@@H]1O5 (stereo partly drawn) [II-95] | 1.11 ± 0.04 | 0.37 ± 0.03 |  | 74 | 22 |  |  | 
13 | COc1ccc2c(c1O)[C@@]13CCN(CC4CCC4)[C@@H](C2)C1CCC(=O)C3 (stereo partly drawn) [Compound I-29] | 1.06 ± 0.03 | 0.11 ± 0.00 | 25 | 92 |  |  |  | 
14 | COC(=O)/C=C/c1cc(OC)c2c3c1CC1C4CCC(=O)[C@@H](O2)[C@@]34CCN1CC1CC1 (stereo partly drawn) [II-15] | 1.22 ± 0.06 | 0.23 ± 0.03 | 14 | 84 |  |  |  | 
15 | CO[C@]12CCC(=O)[C@H]3Oc4c(O)ccc5c4[C@]31CCN(CC1CC1)[C@H]2C5 [II-79] | 1.07 ± 0.03 | 1.06 ± 0.11 | 25 | 25 |  |  |  | 
16 | COC1=CCC2[C@@H]3Cc4ccc(OC)c5c4[C@]2(CCN3C)[C@@H]1O5 (stereo partly drawn) [II-96] | 1.15 ± 0.06 | 0.42 ± 0.02 | 19 | 71 |  |  |  | 
17 | C=CCN1CC[C@@]23c4c5ccc(OC)c4O[C@@H]2[C@H](O)CC[C@]3(O)[C@@H]1C5 (stereo in doubt) [II-48] |  |  |  | 13 |  |  |  | 
18 | O=C1CC[C@]2(O)[C@@H]3Cc4ccc(O)c5c4[C@]2(CCN3CC2CC2)[C@@H]1O5 [II-73] | 1.35 ± 0.13 | 0.96 ± 0.08 | 5 | 32 |  |  |  | 
19 | COc1cc(Br)c2c3c1OC1C(=O)CC[C@@H]4[C@H](C2)N(C)CC[C@@]314 (stereo partly drawn) [II-11] | 1.22 ± 0.10 | 0.44 ± 0.05 | 14 | 69 |  |  |  | 
20 | COC1=CCC2[C@@H]3Cc4ccc(OC)c5c4[C@]2(CCN3C(=O)Oc2ccccc2)[C@@H]1O5 (stereo partly drawn) [II-100] | 1.16 ± 0.02 | 1.45 ± 0.11 | 18 | -2 |  |  |  | 
21 | COc1cc(Br)c2c3c1O[C@@H]1C(=O)CCC4C(C2)NCC[C@]341 (stereo partly drawn) [II-1] | 0.97 ± 0.04 | 0.19 ± −0.2 | 32 | 86 |  |  |  | 
22 | COC1=CC=C2[C@@H]3Cc4ccc(OC)c5c4[C@]2(CCN3CC2CC2)[C@@H]1O5 [II-36] | 1.14 ± 0.02 | 0.14 ± 0.01 | 20 | 90 |  |  |  | 
23 | C=CCN1CC[C@]23C4=CC=C(OC)[C@H]2Oc2c(OC)ccc(c23)C[C@@H]41 [II-35] | 1.04 ± 0.08 | 0.34 ± 0.03 | 27 | 76 |  |  |  | 
24 | C=C1CC[C@]2(O)[C@@H]3Cc4ccc(O)c5c4[C@]2(CCN3CC2CC2)[C@@H]1O5 [II-77] | 1.24 ± 0.04 | 0.98 ± 0.02 | 13 | 37 |  |  |  | 
25 | COc1ccc2c(c1)CCN(CC1CC1)[C@@H]2Cc1ccc(OC)c(O)c1 [III-3] | 1.03 ± 0.03 | 0.13 ± 0.01 |  |  |  | 27 | 91 | 
26 | C=CCN1CC[C@@]23c4c5c(Br)cc(OC)c4O[C@@H]2C(=O)CCC3C1C5 (stereo partly drawn) [II-16] | 1.43 ± 0.01 | 1.24 ± 0.11 | -1 | 13 |  |  |  | 
27 | COc1ccc2c(c1O)[C@@]13CCN(CC4CC4)C(C2)C1CCC(=O)C3 (stereo partly drawn) [Compound I-6] | 1.29 ± 0.07 | 0.12 ± 0.02 | 9 | 91 |  |  |  | 
28 | COc1ccc2c3c1O[C@@H]1C(=O)CC[C@@H]4[C@H](C2)N(C(=O)C2CC2)CC[C@@]314 [II-30] | 1.34 ± 0.11 | 1.13 ± 0.06 |  |  | 5 |  |  | 20
29 | COc1ccc2c3c1O[C@@H]1C(=O)CC[C@@H]4[C@H](C2)N(C(C)=O)CC[C@@]314 [II-31] | 1.40 ± 0.04 | 1.37 ± 0.11 | 2 | 3 |  |  |  | 
30 | C=CCN1CC[C@@]23c4c5ccc(OC)c4OC2C(OC(C)=O)CC[C@@H]3C1C5 (single isomer, unassigned) [II-94a] | 1.13 ± 0.04 | 1.16 ± 0.08 | 20 |  |  |  |  | 18

Source: patent US10363251B2, “(+)-morphinans as antagonists of toll-like receptor 9 and therapeutic uses thereof” (Mallinckrodt LLC, priority 2009, dated 2019)
